Source: patent US20050239656A1, “Pyridine compounds or salts thereof and herbicides containing the same” (priority 2002, published 2005)

Experiments:
corn [1] = assay: Test Example 1: foliage treatment, upland pot test; type: in vivo, Zea mays L.; conditions: crop, active ingredient 500 g/ha, observed 18th to 23rd day, 0 = non-treated, 100 = complete kill
Procedure, shortened: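 In this upland pot foliage test, corn plants at 2.1 to 3.2 leaf stages were sprayed by a small size sprayer. The spray was a conventionally formulated wettable powder or emulsifiable concentrate weighed to a set active ingredient amount, diluted in water at 500 L/ha, plus 0.1% (v/v) agricultural spreader. Visual assessment on days 18 to 23 gave growth controlling degree (%), where 0 equals untreated and 100 means complete kill.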

rice [2] = assay: Test Example 2: soil surface treatment, upland pot test; type: in vivo, Oryza sativa L.; conditions: active ingredient 500 g/ha
Procedure, shortened: (§1)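 Herbicidal effect is given as percent growth control, assessed by eye 20 to 28 days post-spray against untreated plants (0) and full kill (100). Treatment: soil-surface application one day after sowing, formulated product diluted in 1,500 L/ha water, upland soil, 1/170,000 ha pots.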

velvetleaf [3] = assay: as above; type: in vivo, Abutilon theophrasti MEDIC.; conditions: active ingredient 500 g/ha
Procedure, shortened: as §1

rice (var. Nihonbare) = assay: Test Example 3: paddy pot test, transplanted rice; type: in vivo, Oryza sativa L.; conditions: applied 4th day after transplantation, visually observed 21st day after application, 0 = non-treated, 100 = complete kill
Procedure, shortened: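 Visual crop-injury rating (0 = as untreated, 100 = complete kill, %) taken 21 days post-application. Treatment: formulated compound, water-diluted, pipetted into 3–4 cm flood water at a preset active-ingredient dose, 4 days after transplanting 2-leaf Nihonbare rice 3 cm deep in puddled paddy soil.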

barnyardgrass [4] = assay: Test Example 2: soil surface treatment, upland pot test; type: in vivo, Echinochloa crus-galli L.; conditions: active ingredient 500 g/ha
Procedure, shortened: as §1

corn [5] = assay: as above; type: in vivo, Zea mays L.; conditions: active ingredient 500 g/ha
Procedure, shortened: as §1

crabgrass [6] = assay: as above; type: in vivo, Digitaria sanguinalis L.; conditions: active ingredient 500 g/ha
Procedure, shortened: as §1

velvetleaf [7] = assay: Test Example 1: foliage treatment, upland pot test; type: in vivo, Abutilon theophrasti MEDIC.; conditions: active ingredient 500 g/ha, observed 18th to 23rd day, 0 = non-treated, 100 = complete kill
green foxtail [8] = assay: Test Example 2: soil surface treatment, upland pot test; type: in vivo, Setaria viridis L.; conditions: active ingredient 500 g/ha
Procedure, shortened: as §1

redroot pigweed [9] = assay: as above; type: in vivo, Amaranthus retroflexus L.; conditions: active ingredient 500 g/ha
Procedure, shortened: as §1

soybean [10] = assay: as above; type: in vivo, Glycine max Merr.; conditions: active ingredient 500 g/ha
Procedure, shortened: as §1

rice [11] = assay: Test Example 1: foliage treatment, upland pot test; type: in vivo, Oryza sativa L.; conditions: crop, active ingredient 500 g/ha, observed 18th to 23rd day, 0 = non-treated, 100 = complete kill
Procedure, shortened: (§2)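 Foliage tx, upland soil pots; stages: wheat 1.3-2.4 L, rice 1.2-2.6 L, soybean 0.1-0.4 L, barnyardgrass 1.3-2.8 L. WP/EC diluted, 500 L/ha water + 0.1% (v/v) agricultural spreader, small sprayer. Visual rating d18–23, 0–100% control.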

japanese bulrush = assay: Test Example 3: paddy pot test, application under submerged conditions; type: in vivo, Scirpus juncoides; conditions: submerged application at 0.5 leaf stage, visually observed 14 days after application, 0 = non-treated, 100 = complete kill
Procedure, shortened: (§3)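 Visual rating of growth control (0% equals untreated, 100% complete kill) made 14 days after treatment. Compound, formulated as wettable powder or emulsifiable concentrate and diluted in water, was pipetted under submerged conditions at predetermined active-ingredient doses once weeds reached 0.5-leaf (barnyardgrass, bulrush) or primary-leaf (wapato, from tubers) stage. Pots of greenhouse paddy soil held 3–4 cm flooding.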

prickly sida [12] = assay: Test Example 1: foliage treatment, upland pot test; type: in vivo, Sida spinosa L.; conditions: active ingredient 500 g/ha, observed 18th to 23rd day, 0 = non-treated, 100 = complete kill
barnyardgrass [13] = assay: Test Example 1: foliage treatment, upland pot test; type: in vivo, Echinochloa crus-galli L.; conditions: active ingredient 500 g/ha, observed 18th to 23rd day, 0 = non-treated, 100 = complete kill
Procedure, shortened: as §2

japanese ribbon wapato = assay: Test Example 3: paddy pot test, application under submerged conditions; type: in vivo, Sagittaria pygniaea; conditions: submerged application at primary leaf stage, visually observed 14 days after application, 0 = non-treated, 100 = complete kill
Procedure, shortened: as §3

redroot pigweed [14] = assay: Test Example 1: foliage treatment, upland pot test; type: in vivo, Amaranthus retroflexus L.; conditions: active ingredient 500 g/ha, observed 18th to 23rd day, 0 = non-treated, 100 = complete kill
crabgrass [15] = assay: Test Example 1: foliage treatment, upland pot test; type: in vivo, Digitaria sanguinalis L.; conditions: active ingredient 500 g/ha, observed 18th to 23rd day, 0 = non-treated, 100 = complete kill
soybean [16] = assay: Test Example 1: foliage treatment, upland pot test; type: in vivo, Glycine max Merr.; conditions: crop, active ingredient 500 g/ha, observed 18th to 23rd day, 0 = non-treated, 100 = complete kill
Procedure, shortened: as §2

barnyardgrass [17] = assay: Test Example 3: paddy pot test, application under submerged conditions; type: in vivo, Echinochloa crus-galli L.; conditions: submerged application at 0.5 leaf stage, visually observed 14 days after application, 0 = non-treated, 100 = complete kill
Procedure, shortened: as §3

green foxtail [18] = assay: Test Example 1: foliage treatment, upland pot test; type: in vivo, Setaria viridis L.; conditions: active ingredient 500 g/ha, observed 18th to 23rd day, 0 = non-treated, 100 = complete kill
prickly sida [19] = assay: Test Example 2: soil surface treatment, upland pot test; type: in vivo, Sida spinosa L.; conditions: active ingredient 500 g/ha
Procedure, shortened: as §1

[20] = observed day 21, 0 = non-treated, 100 = complete kill

SMILES	Growth controlling degree (%) Corn (corn [1]) [%]	Growth controlling degree (%) Rice (rice [2]; observed 20th to 28th day) [%]	Growth controlling degree (%) Velvetleaf (velvetleaf [3]; observed 20th to 28th day) [%]	Growth controlling degree (%) Rice (rice (var. Nihonbare); active ingredient 250 g/ha) [%]	Growth controlling degree (%) Barnyardgrass (barnyardgrass [4]; observed 20th to 28th day) [%]	Growth controlling degree (%) Corn (corn [5]; observed 20th to 28th day) [%]	Growth controlling degree (%) Crabgrass (crabgrass [6]; observed 20th to 28th day) [%]	Growth controlling degree (%) Velvetleaf (velvetleaf [7]) [%]	Growth controlling degree (%) Green foxtail (green foxtail [8]; observed 20th to 28th day) [%]	Growth controlling degree (%) Redroot pigweed (redroot pigweed [9]; observed 20th to 28th day) [%]	Growth controlling degree (%) Soyabean (soybean [10]; observed 20th to 28th day) [%]	Growth controlling degree (%) Rice (rice [11]) [%]	Growth controlling degree (%) Japanese bulrush (japanese bulrush; active ingredient 250 g/ha) [%]	Growth controlling degree (%) Prickly sida (prickly sida [12]) [%]	Growth controlling degree (%) Barnyardgrass (barnyardgrass [13]) [%]	Growth controlling degree (%) Redroot pigweed (redroot pigweed [14]) [%]	Growth controlling degree (%) Crabgrass (crabgrass [15]) [%]	Growth controlling degree (%) Soybean (soybean [16]) [%]	Growth controlling degree (%) Green foxtail (green foxtail [18]) [%]	Growth controlling degree (%) Prickly sida (prickly sida [19]; observed 20th to 28th day) [%]	other results
CC(C)C(c1cnccc1C(F)(F)F)N(C)C(=O)Cc1cc(F)ccc1F (stereo not drawn) [I-85]	60	10	80	0	100	10	100	90	100	90	40	40	98	80	80	70	90	80	85	100	Growth controlling degree (%) Japanese ribbon wapato (japanese ribbon wapato; active ingredient 250 g/ha): 70%; Growth controlling degree (%) Barnyardgrass (barnyardgrass [17]; active ingredient 250 g/ha): 100%
CC(C)C(c1cnccc1C(F)(F)F)N(C)C(=O)Cc1ccc(C(F)(F)F)c(F)c1 (stereo not drawn) [I-62]	10	10	50	20	60	10	98	90	60	70	10	10	30	70	20	80	60	30	40	98	Growth controlling degree (%) Japanese ribbon wapato (japanese ribbon wapato; active ingredient 250 g/ha): 0%; Growth controlling degree (%) Barnyardgrass (barnyardgrass [17]; active ingredient 250 g/ha): 98%
CCC(C)C(c1cnccc1C(F)(F)F)N(C)C(=O)Cc1ccccc1 (stereo not drawn) [I-260]	80	–	–	10	–	–	–	90	–	–	–	40	98	95	80	40	80	90	50	–	Growth controlling degree (%) Rice (rice [2]; [20]): 10%; Growth controlling degree (%) Velvetleaf (velvetleaf [3]; [20]): 70%; Growth controlling degree (%) Barnyardgrass (barnyardgrass [4]; [20]): 80%; Growth controlling degree (%) Corn (corn [5]; [20]): 30%; Growth controlling degree (%) Crabgrass (crabgrass [6]; [20]): 98%; Growth controlling degree (%) Green foxtail (green foxtail [8]; [20]): 100%; Growth controlling degree (%) Redroot pigweed (redroot pigweed [9]; [20]): 70%; Growth controlling degree (%) Soyabean (soybean [10]; [20]): 20%; Growth controlling degree (%) Japanese ribbon wapato (japanese ribbon wapato; active ingredient 250 g/ha): 60%; Growth controlling degree (%) Barnyardgrass (barnyardgrass [17]; active ingredient 250 g/ha): 100%; Growth controlling degree (%) Prickly sida (prickly sida [19]; [20]): 95%
CC(C)C(c1cnccc1Cl)N(C)C(=O)Cc1ccccc1F (stereo not drawn) [I-66]	40	40	40	–	80	10	90	70	50	60	50	10	–	60	20	50	70	50	70	30	Growth controlling degree (%) Rice (rice (var. Nihonbare); active ingredient 125 g/ha): 10%; Growth controlling degree (%) Japanese bulrush (japanese bulrush; active ingredient 125 g/ha): 90%; Growth controlling degree (%) Japanese ribbon wapato (japanese ribbon wapato; active ingredient 125 g/ha): 10%; Growth controlling degree (%) Barnyardgrass (barnyardgrass [17]; active ingredient 125 g/ha): 98%
CC(C)C(c1cnccc1Cl)N(C)C(=O)Cc1ccc(F)cc1 (stereo not drawn) [I-67]	0	10	60	–	90	40	95	60	95	40	10	10	–	80	50	60	90	50	70	80	Growth controlling degree (%) Rice (rice (var. Nihonbare); active ingredient 125 g/ha): 0%; Growth controlling degree (%) Japanese bulrush (japanese bulrush; active ingredient 125 g/ha): 98%; Growth controlling degree (%) Japanese ribbon wapato (japanese ribbon wapato; active ingredient 125 g/ha): 60%; Growth controlling degree (%) Barnyardgrass (barnyardgrass [17]; active ingredient 125 g/ha): 100%
CC(C)C(c1cnccc1Cl)N(C)C(=O)Cc1ccc(C(F)(F)F)cc1 (stereo not drawn) [I-69]	60	10	20	–	95	20	98	95	85	50	40	10	–	80	10	70	90	60	30	80	Growth controlling degree (%) Rice (rice (var. Nihonbare); active ingredient 125 g/ha): 0%; Growth controlling degree (%) Japanese bulrush (japanese bulrush; active ingredient 125 g/ha): 70%; Growth controlling degree (%) Japanese ribbon wapato (japanese ribbon wapato; active ingredient 125 g/ha): 40%; Growth controlling degree (%) Barnyardgrass (barnyardgrass [17]; active ingredient 125 g/ha): 95%
